In US20100196355A1, “Immunophilin Ligands and Methods for Modulating Immunophilin and Calcium Channel Activity” (Wyeth, priority 2007, published 2010):

System: rat cortical neuron cultures
Assay: Transcriptional profiling of cortical neuron cultures
Format: cell-based
Conditions: 10 μM; for fold change, PLAU: plasminogen activator (PLAU)
Procedure: Cortical neuron cultures were prepared from E16 rat embryos. After plating for 24 hrs, cultures were treated with 10 μM immunophilin ligands and the corresponding vehicle. After treatment for 4 hrs, 12 hrs, 24 hrs and 48 hrs, cells were lysed. Total RNA from each sample was extracted with the RNEASY® Mini Kit (QIAGEN®). Double stranded cDNA was synthesized from 2 μg of each RNA sample using the […]® System (INVITROGEN®), purified, transcribed in vitro to prepare biotinylated cRNA using T7 RNA polymerase in the presence of biotin labeled UTP and CTP. The fragmented cRNAs were hybridized to a Rat Genome 230 2.0 […]® (AFFYMETRIX®, Santa Clara, Calif.) as recommended by the manufacturer. Hybridized arrays were stained according to manufacture protocols on a Fluidics Station 450 and subsequently scanned on an AFFYMETRIX® scanner 3000. The raw data was generated using AFFYMETRIX® MAS 5.0 Software. Transcriptional profiling data were analyzed in Ingenuity.

For `CO[C@H]1C[C@@H]2CC[C@@H](C)[C@@](O)(O2)C(=O)C(=O)N2CCCCC2C(=O)O[C@H]([C@H](C)C[C@@H]2CC[C@@H](O)[C@H](OC)C2)CC(=O)[C@H](C)/C=C(\C)[C@@H](O)[C@@H](OC)C(=O)[C@H](C)C[C@H](C)C2C=C[C@H](/C=C/1C)ON2c1ccccc1` (stereo partly shown) [Rapamycin analogue I, 9,27-dihydroxy-3-{2-[4-hydroxy-3-methoxycyclohexyl]-1-methylethyl}-10,21-dimethoxy-6,8,12,14,20,26-hexamethyl-37-phenyl-4,9,10,12,13,14,15,18,21,22,23,24,25,26,27,32,33,34,34a-nonadecahydro-3H-23,27-epoxy-18,15-(epoxyimino)pyrido[2,1-c][1,4]oxazacyclohentriacontine-1,5,11,28,29(6H, 31H)-pentone], the “fold change vs DMSO, ACTA1” value was −1.53 fold, the “fold change vs DMSO, ACTA2” value was 1.41 fold and the “fold change vs DMSO, AKAP5” value was −2.56 fold. The “fold change vs DMSO, ASPH” value was −3.19 fold, the “fold change vs DMSO, ATP2A2” value was 1.85 fold and the “fold change vs DMSO, ATP2B1” value was 1.53 fold. The “fold change vs DMSO, ATP2B3” value was −1.54 fold, the “fold change vs DMSO, ATP2C1” value was −1.38 fold and the “fold change vs DMSO, CABIN1” value was 1.33 fold. The “fold change vs DMSO, CACNA1B” value was −1.77 fold, the “fold change vs DMSO, CACNA1C” value was 1.48 fold and the “fold change vs DMSO, CACNA1D” value was −1.72 fold. The “fold change vs DMSO, CACNA2D1” value was 3.47 fold, the “fold change vs DMSO, CACNB1” value was −1.32 fold and the “fold change vs DMSO, CACNG2” value was −1.8 fold. The “fold change vs DMSO, CACNG3” value was −3.73 fold, the “fold change vs DMSO, CALM1” value was −1.74 fold and the “fold change vs DMSO, CALM2” value was −1.22 fold. For the same molecule, the “fold change vs DMSO, CALM3” value was −1.34 fold, the “fold change vs DMSO, CALR” value was 1.18 fold and the “fold change vs DMSO, CAMK1” value was −1.6 fold. The “fold change vs DMSO, CAMK1G” value was −2.47 fold, the “fold change vs DMSO, CAMK2A” value was −2.03 fold and the “fold change vs DMSO, CAMK2B” value was −1.82 fold. The “fold change vs DMSO, CAMK2D” value was −1.45 fold, the “fold change vs DMSO, CAMK4” value was −1.42 fold and the “fold change vs DMSO, CHP” value was 1.65 fold. The “fold change vs DMSO, CREBBP” value was 4.14 fold, the “fold change vs DMSO, CYP27B1” value was −1.27 fold and the “fold change vs DMSO, DHCR7” value was 1.84 fold. The “fold change vs DMSO, DSCR1” value was −1.93 fold, the “fold change vs DMSO, DSCR1L1” value was −4.44 fold and the “fold change vs DMSO, EBP” value was 1.45 fold. For the same molecule, the “fold change vs DMSO, FDFT1” value was 1.94 fold, the “fold change vs DMSO, FDPS” value was 2.34 fold and the “fold change vs DMSO, GRIA1” value was −2.78 fold. The “fold change vs DMSO, GRIA2” value was 2.74 fold, the “fold change vs DMSO, GRIN1” value was −2.41 fold and the “fold change vs DMSO, GRIN2B” value was −1.94 fold. The “fold change vs DMSO, GRIN3A” value was −1.84 fold, the “fold change vs DMSO, GRINA” value was −1.21 fold and the “fold change vs DMSO, HDAC5” value was 1.78 fold. For the same molecule, the “fold change vs DMSO, HDAC6” value was −1.18 fold, the “fold change vs DMSO, HDAC7A” value was 1.24 fold and the “fold change vs DMSO, HMGCR” value was 2.24 fold. The “fold change vs DMSO, HTR3A” value was −1.57 fold, the “fold change vs DMSO, IDI1” value was 3.24 fold and the “fold change vs DMSO, ITPR3” value was −1.85 fold. The “fold change vs DMSO, LSS” value was 13.3 fold, the “fold change vs DMSO, MAPK1” value was 1.29 fold and the “fold change vs DMSO, MAPK3” value was −1.31 fold. The “fold change vs DMSO, MVD” value was 1.94 fold, the “fold change vs DMSO, MVK” value was 1.6 fold and the “fold change vs DMSO, MYH1” value was −2.18 fold. The “fold change vs DMSO, MYH6” value was −7.18 fold, the “fold change vs DMSO, MYH7” value was −6.11 fold and the “fold change vs DMSO, MYL6B” value was −1.69 fold. The “fold change vs DMSO, NQO1” value was 1.8 fold, the “fold change vs DMSO, PMVK” value was 1.33 fold and the “fold change vs DMSO, PPP3CB” value was −1.3 fold. For the same molecule, the “fold change vs DMSO, PPP3CC” value was −1.18 fold, the “fold change vs DMSO, PPP3R1” value was −1.49 fold and the “fold change vs DMSO, PRKAG1” value was −1.21 fold. The “fold change vs DMSO, PRKAR1A” value was 1.08 fold, the “fold change vs DMSO, PRKAR1B” value was −3.36 fold and the “fold change vs DMSO, PRKAR2A” value was −1.56 fold. For the same molecule, the “fold change vs DMSO, PRKAR2B” value was −1.56 fold, the “fold change vs DMSO, RAP1B” value was −1.29 fold and the “fold change vs DMSO, SC5DL” value was 2.01 fold. For the same molecule, the “fold change vs DMSO, SQLE” value was 1.92 fold, the “fold change vs DMSO, TPM1” value was −2.55 fold and the “fold change vs DMSO, TPM3” value was −2.04 fold. The “fold change vs DMSO, TRPC1” value was −1.21 fold, the “fold change vs DMSO, TRPC3” value was −2.4 fold and the “fold change vs DMSO, TRPC4” value was −4.56 fold. For the same molecule, the “fold change vs DMSO, TRPV6” value was 1.65 fold and the “fold change, PLAU” value was −40 fold.
With `CO[C@H]1C[C@@H]2CC[C@@H](C)[C@@](O)(O2)C(=O)C(=O)N2CCCCC2C(=O)O[C@H]([C@H](C)C[C@@H]2CC[C@@H](O)[C@H](OC)C2)CC(=O)[C@H](C)/C=C(\C)[C@@H](O)[C@@H](OC)C(=O)[C@H](C)C[C@H](C)C2CC[C@H](/C=C/1C)ON2c1ccccc1` (stereo partly shown) [Rapamycin analogue II, 9,27-dihydroxy-3-{2-[4-hydroxy-3-methoxycyclohexyl]-1-methylethyl}-10,21-dimethoxy-6,8,12,14,20,26-hexamethyl-37-phenyl-4,9,10,12,13,14,15,16,17,18,21,22,23,24,25,26,27,32,33,34,34a-henicosahydro-3H-23,27-epoxy-18,15-(epoxyimino)pyrido[2,1-c][1,4]oxazacyclohentriacontine-1,5,11,28,29(6H, 31H)-pentone] the “fold change vs DMSO, ACTA1” value was −1.6 fold, the “fold change vs DMSO, ACTA2” value was 1.37 fold and the “fold change vs DMSO, AKAP5” value was −1.5 fold. For the same molecule, the “fold change vs DMSO, ASPH” value was −3.27 fold, the “fold change vs DMSO, ATP2A2” value was 2 fold and the “fold change vs DMSO, ATP2B1” value was 1.81 fold. The “fold change vs DMSO, ATP2B3” value was −1.45 fold, the “fold change vs DMSO, ATP2C1” value was −1.32 fold and the “fold change vs DMSO, CABIN1” value was 1.34 fold. The “fold change vs DMSO, CACNA1B” value was −1.45 fold, the “fold change vs DMSO, CACNA1C” value was 1.82 fold and the “fold change vs DMSO, CACNA1D” value was −1.28 fold. The “fold change vs DMSO, CACNA2D1” value was 5.73 fold, the “fold change vs DMSO, CACNB1” value was −1.14 fold and the “fold change vs DMSO, CACNG2” value was −2 fold. For the same molecule, the “fold change vs DMSO, CACNG3” value was −2.46 fold, the “fold change vs DMSO, CALM1” value was −1.63 fold and the “fold change vs DMSO, CALM2” value was −1.33 fold. The “fold change vs DMSO, CALM3” value was −1.52 fold, the “fold change vs DMSO, CALR” value was 1.19 fold and the “fold change vs DMSO, CAMK1” value was −1.43 fold. The “fold change vs DMSO, CAMK1G” value was −2.26 fold, the “fold change vs DMSO, CAMK2A” value was −4.13 fold and the “fold change vs DMSO, CAMK2B” value was −1.88 fold. For the same molecule, the “fold change vs DMSO, CAMK2D” value was −1.48 fold, the “fold change vs DMSO, CAMK4” value was −1.33 fold and the “fold change vs DMSO, CHP” value was 1.54 fold. The “fold change vs DMSO, CREBBP” value was 5.84 fold, the “fold change vs DMSO, CYP27B1” value was −1.38 fold and the “fold change vs DMSO, DHCR7” value was 1.73 fold. For the same molecule, the “fold change vs DMSO, DSCR1” value was −1.82 fold, the “fold change vs DMSO, DSCR1L1” value was −4.73 fold and the “fold change vs DMSO, EBP” value was 1.32 fold. The “fold change vs DMSO, FDFT1” value was 1.89 fold, the “fold change vs DMSO, FDPS” value was 2.07 fold and the “fold change vs DMSO, GRIA1” value was −2.16 fold. For the same molecule, the “fold change vs DMSO, GRIA2” value was 2.71 fold, the “fold change vs DMSO, GRIN1” value was −2.8 fold and the “fold change vs DMSO, GRIN2B” value was −1.57 fold. The “fold change vs DMSO, GRIN3A” value was −2.94 fold, the “fold change vs DMSO, GRINA” value was −1.2 fold and the “fold change vs DMSO, HDAC5” value was 1.8 fold. The “fold change vs DMSO, HDAC6” value was −1.13 fold, the “fold change vs DMSO, HDAC7A” value was 1.27 fold and the “fold change vs DMSO, HMGCR” value was 2.26 fold. For the same molecule, the “fold change vs DMSO, HTR3A” value was −1.64 fold, the “fold change vs DMSO, IDI1” value was 2.85 fold and the “fold change vs DMSO, ITPR3” value was −1.93 fold. The “fold change vs DMSO, LSS” value was 13.19 fold, the “fold change vs DMSO, MAPK1” value was 1.38 fold and the “fold change vs DMSO, MAPK3” value was −1.19 fold. For the same molecule, the “fold change vs DMSO, MVD” value was 1.81 fold, the “fold change vs DMSO, MVK” value was 1.6 fold and the “fold change vs DMSO, MYH1” value was −2.17 fold. The “fold change vs DMSO, MYH6” value was −5.93 fold, the “fold change vs DMSO, MYH7” value was −5.88 fold and the “fold change vs DMSO, MYL6B” value was −1.68 fold. For the same molecule, the “fold change vs DMSO, NQO1” value was 1.64 fold, the “fold change vs DMSO, PMVK” value was 1.25 fold and the “fold change vs DMSO, PPP3CB” value was −1.27 fold. For the same molecule, the “fold change vs DMSO, PPP3CC” value was −1.27 fold, the “fold change vs DMSO, PPP3R1” value was −1.44 fold and the “fold change vs DMSO, PRKAG1” value was −1.24 fold. For the same molecule, the “fold change vs DMSO, PRKAR1A” value was −1.1 fold, the “fold change vs DMSO, PRKAR1B” value was −3.18 fold and the “fold change vs DMSO, PRKAR2A” value was −1.23 fold. The “fold change vs DMSO, PRKAR2B” value was −1.5 fold, the “fold change vs DMSO, RAP1B” value was −1.33 fold and the “fold change vs DMSO, SC5DL” value was 1.94 fold. The “fold change vs DMSO, SQLE” value was 1.9 fold, the “fold change vs DMSO, TPM1” value was −2.83 fold and the “fold change vs DMSO, TPM3” value was −1.99 fold. The “fold change vs DMSO, TRPC1” value was −1.08 fold, the “fold change vs DMSO, TRPC3” value was −1.95 fold and the “fold change vs DMSO, TRPC4” value was −5.42 fold. The “fold change vs DMSO, TRPV6” value was 1.73 fold and the “fold change, PLAU” value was −10 fold.
